Publication PMC4429609 (Journal of medicinal chemistry, 2012)

Assays:
Assay in all cases: biochemical
RET = RET (Homo sapiens, UniProt P07949); details: read-out: % Inhibition at 1 μM, RET
AKT1 = AKT1 (Homo sapiens, UniProt P31749); details: read-out: % Inhibition at 1 μM, AKT1
WEE1 = WEE1 (Homo sapiens, UniProt P30291); details: read-out: % Inhibition at 1 μM, WEE1
CHK1 = CHK1 (Homo sapiens, UniProt O14757); details: read-out: % Inhibition at 1 μM, CHK1
NEK6 = NEK6 (Homo sapiens, UniProt Q9HC98); details: read-out: % Inhibition at 1 μM, NEK6
ROCK1 = ROCK1 (Homo sapiens, UniProt Q13464); details: read-out: % Inhibition at 1 μM, ROCK1
TRKA = TRKA (Homo sapiens, UniProt P04629); details: read-out: % Inhibition at 1 μM, TRKA
PLK1 = PLK1 (Homo sapiens, UniProt P53350); details: read-out: % Inhibition at 1 μM, PLK1
CHK2 = CHK2 (Homo sapiens, UniProt O96017); details: read-out: % Inhibition at 1 μM, CHK2
NEK11 = NEK11 (Homo sapiens, UniProt Q8NG66); details: read-out: % Inhibition at 1 μM, NEK11
CDK2/cyclin A = CDK2/cyclin A (Homo sapiens, UniProt P24941); details: read-out: % Inhibition at 1 μM, CDK2/cyclin A
CDK1/cyclin B = CDK1/cyclin B (Homo sapiens, UniProt P06493); details: read-out: % Inhibition at 1 μM, CDK1/cyclin B

Chain of ROCK1 (Q13464 whole entry, looked up): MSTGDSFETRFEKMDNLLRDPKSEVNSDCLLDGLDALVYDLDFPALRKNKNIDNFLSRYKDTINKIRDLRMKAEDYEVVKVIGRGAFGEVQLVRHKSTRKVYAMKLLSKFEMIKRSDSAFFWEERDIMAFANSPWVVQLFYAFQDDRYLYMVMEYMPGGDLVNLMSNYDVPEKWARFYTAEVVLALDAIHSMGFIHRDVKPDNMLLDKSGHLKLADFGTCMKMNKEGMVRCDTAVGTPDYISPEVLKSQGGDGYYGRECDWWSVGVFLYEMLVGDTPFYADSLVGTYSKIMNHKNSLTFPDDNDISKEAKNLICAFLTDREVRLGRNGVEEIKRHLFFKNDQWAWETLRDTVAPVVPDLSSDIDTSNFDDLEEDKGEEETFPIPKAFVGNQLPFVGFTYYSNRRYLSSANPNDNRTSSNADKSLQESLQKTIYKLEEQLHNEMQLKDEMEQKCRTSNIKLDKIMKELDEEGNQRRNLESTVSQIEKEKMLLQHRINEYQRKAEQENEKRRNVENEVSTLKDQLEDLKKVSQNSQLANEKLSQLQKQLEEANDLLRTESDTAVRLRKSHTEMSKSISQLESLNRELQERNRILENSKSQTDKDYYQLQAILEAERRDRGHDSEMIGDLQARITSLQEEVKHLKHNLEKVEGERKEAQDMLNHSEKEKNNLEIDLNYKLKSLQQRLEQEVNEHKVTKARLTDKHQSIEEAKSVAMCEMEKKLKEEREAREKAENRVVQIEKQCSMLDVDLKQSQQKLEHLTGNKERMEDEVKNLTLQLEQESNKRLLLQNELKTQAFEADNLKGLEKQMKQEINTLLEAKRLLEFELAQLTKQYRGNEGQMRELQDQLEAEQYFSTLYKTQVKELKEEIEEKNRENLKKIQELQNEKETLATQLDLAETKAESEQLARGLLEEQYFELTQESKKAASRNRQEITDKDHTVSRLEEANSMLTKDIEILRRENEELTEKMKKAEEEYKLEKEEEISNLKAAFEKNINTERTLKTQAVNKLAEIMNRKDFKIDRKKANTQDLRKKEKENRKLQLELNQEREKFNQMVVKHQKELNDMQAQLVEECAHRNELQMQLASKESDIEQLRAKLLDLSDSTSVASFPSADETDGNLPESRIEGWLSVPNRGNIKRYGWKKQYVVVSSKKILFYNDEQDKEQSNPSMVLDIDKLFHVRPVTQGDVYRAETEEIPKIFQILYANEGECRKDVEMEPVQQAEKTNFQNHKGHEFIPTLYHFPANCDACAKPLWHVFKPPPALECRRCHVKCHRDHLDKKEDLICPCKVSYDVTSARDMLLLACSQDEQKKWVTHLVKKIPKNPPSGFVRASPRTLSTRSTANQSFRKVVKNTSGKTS
Chain of RET (P07949 29-1114): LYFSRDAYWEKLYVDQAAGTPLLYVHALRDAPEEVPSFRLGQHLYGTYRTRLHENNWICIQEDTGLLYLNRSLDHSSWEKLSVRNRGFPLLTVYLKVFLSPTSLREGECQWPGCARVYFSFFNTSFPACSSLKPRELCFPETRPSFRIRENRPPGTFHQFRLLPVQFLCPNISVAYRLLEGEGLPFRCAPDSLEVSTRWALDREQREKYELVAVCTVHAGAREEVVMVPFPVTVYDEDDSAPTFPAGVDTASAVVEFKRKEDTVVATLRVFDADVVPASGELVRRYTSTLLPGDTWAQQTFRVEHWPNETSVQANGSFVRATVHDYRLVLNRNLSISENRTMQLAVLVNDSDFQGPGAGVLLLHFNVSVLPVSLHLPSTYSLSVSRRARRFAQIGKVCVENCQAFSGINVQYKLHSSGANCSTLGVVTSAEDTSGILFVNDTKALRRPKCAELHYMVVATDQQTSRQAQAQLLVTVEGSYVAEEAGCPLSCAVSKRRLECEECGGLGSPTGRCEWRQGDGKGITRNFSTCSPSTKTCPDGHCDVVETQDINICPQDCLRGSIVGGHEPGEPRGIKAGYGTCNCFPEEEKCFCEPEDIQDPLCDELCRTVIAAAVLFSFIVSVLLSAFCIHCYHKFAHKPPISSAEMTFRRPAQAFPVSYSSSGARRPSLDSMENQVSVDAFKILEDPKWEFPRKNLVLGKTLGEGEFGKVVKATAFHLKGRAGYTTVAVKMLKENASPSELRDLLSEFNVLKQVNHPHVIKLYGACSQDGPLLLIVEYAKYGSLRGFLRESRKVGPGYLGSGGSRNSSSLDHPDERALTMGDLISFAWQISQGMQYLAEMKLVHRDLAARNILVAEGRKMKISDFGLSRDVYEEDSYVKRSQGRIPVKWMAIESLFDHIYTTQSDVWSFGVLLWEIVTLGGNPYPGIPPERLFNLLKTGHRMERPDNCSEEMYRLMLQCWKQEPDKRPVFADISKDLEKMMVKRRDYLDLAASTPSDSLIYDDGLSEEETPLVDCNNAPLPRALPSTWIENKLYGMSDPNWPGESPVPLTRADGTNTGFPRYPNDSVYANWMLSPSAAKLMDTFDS
Chain of TRKA (P04629 33-796): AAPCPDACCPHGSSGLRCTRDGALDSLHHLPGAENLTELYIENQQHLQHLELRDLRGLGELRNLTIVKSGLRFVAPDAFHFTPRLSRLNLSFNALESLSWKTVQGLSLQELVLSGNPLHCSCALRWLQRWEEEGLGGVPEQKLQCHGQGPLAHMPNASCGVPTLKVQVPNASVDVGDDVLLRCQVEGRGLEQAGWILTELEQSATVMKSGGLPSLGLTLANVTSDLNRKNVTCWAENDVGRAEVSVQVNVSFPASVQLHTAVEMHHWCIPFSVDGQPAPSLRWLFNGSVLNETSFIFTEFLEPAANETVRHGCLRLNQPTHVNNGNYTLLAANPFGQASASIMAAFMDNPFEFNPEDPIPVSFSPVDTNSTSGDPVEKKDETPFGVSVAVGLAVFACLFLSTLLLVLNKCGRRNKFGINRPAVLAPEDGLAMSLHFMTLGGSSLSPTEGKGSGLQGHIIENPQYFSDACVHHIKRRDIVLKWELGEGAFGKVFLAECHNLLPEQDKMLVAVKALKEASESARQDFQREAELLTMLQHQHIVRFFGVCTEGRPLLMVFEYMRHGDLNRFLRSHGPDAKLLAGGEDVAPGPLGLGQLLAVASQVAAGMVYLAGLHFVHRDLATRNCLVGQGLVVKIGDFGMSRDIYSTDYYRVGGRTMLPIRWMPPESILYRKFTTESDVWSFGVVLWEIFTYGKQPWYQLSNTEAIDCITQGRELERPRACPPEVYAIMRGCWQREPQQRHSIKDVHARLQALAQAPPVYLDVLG
Chain of PLK1 (P53350 whole entry): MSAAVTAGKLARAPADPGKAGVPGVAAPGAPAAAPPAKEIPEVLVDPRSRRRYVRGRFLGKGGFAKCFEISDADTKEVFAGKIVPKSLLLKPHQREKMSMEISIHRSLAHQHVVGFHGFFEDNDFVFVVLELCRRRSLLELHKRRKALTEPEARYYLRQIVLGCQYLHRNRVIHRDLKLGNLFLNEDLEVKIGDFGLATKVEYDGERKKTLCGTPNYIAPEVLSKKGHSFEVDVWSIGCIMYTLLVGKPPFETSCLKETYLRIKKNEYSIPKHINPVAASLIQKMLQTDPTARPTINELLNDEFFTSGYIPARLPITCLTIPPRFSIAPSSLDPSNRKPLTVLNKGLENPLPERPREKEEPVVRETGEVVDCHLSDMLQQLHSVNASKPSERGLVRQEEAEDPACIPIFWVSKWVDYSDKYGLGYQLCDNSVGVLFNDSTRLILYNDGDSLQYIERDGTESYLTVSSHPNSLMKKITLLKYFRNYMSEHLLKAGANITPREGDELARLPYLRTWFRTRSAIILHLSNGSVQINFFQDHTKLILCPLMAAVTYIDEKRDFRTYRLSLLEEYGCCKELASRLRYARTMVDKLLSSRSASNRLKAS
Chain of WEE1 (P30291 whole entry, looked up): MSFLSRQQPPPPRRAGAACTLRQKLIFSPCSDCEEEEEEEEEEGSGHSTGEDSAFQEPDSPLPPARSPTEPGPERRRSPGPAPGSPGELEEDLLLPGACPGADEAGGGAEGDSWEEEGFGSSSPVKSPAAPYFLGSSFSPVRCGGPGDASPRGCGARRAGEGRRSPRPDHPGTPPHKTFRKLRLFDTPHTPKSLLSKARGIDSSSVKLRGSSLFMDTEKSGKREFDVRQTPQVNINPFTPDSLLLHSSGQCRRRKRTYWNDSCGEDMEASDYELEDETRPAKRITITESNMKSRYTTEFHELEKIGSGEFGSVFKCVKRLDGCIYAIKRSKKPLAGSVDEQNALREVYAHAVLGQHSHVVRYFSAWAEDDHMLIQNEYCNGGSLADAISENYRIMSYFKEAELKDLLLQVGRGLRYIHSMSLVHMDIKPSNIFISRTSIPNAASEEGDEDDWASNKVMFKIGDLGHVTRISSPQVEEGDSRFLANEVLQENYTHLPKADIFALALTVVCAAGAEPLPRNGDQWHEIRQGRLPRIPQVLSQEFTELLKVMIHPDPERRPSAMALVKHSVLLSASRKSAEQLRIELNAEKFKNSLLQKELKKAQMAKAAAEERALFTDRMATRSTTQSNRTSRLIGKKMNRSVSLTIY
Chain of NEK11 (Q8NG66 whole entry, looked up): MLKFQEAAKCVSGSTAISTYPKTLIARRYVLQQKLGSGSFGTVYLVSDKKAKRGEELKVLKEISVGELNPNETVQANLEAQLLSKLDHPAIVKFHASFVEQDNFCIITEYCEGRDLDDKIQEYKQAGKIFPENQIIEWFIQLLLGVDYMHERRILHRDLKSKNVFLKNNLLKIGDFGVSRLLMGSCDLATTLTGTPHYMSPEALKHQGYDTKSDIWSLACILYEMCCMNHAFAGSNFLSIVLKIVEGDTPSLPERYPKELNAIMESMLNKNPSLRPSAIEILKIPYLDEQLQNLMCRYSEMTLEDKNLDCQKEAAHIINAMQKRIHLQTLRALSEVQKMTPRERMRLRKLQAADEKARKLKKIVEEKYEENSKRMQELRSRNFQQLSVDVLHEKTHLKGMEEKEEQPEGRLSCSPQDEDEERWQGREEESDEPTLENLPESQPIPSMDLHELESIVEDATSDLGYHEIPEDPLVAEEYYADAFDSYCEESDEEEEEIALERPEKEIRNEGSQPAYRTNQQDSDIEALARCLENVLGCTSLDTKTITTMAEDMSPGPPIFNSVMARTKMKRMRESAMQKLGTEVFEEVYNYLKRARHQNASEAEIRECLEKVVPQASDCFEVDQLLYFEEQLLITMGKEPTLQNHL

Cc1cc(Nc2cc(N3CCN(C)CC3)nc(Sc3ccc(NC(=O)C4CC4)cc3)n2)n[nH]1 [VX-680]
inhibition at 1 µM (RET): 96%
inhibition at 1 µM (AKT1): 3%
inhibition at 1 µM (WEE1): 2%
inhibition at 1 µM (CHK1): 16%
inhibition at 1 µM (NEK6): -5%
inhibition at 1 µM (ROCK1): -2%
inhibition at 1 µM (TRKA): 95%
inhibition at 1 µM (PLK1): 0%
inhibition at 1 µM (CHK2): 4%
inhibition at 1 µM (NEK11): 11%
inhibition at 1 µM (CDK2/cyclin A): 7%
inhibition at 1 µM (CDK1/cyclin B): 5%
